Data taken from US6469177B1, “Surface active N-Halamine compounds” (Auburn University, priority 1997, dated 2002).

System: S. aureus (ATCC 6538)
Test: Efficacy of N-halamine compounds against S. aureus in aqueous solution (Example 20)
Format: cell-based, Staphylococcus aureus
Details: pH 7.0; 22 ° C.; chlorine-demand-free water; 5 or 10 milligrams/liter total chlorine
Method: The bacterial efficacies of the compounds against S. aureus (ATCC 6538) in chlorine-demand-free water were determine by using techniques employed previously in extensive detail by Williams et al., Appl. Environ. Microbial., 54:2583 (1987). Solutions containing 10^6 CFU final cell densities of bacteria were prepared and treated with the various disinfectant compounds described in examples 1-17 at either 5 or 10 milligrams/liter total chlorine concentration which was previously determined by titration using a stock solution with sodium thiosulfate. Aliquots were removed at several predetermined times, and the active halogen was quenched by sterile 0.02 normal sodium thiosulfate. Serial dilutions were made into sterile saline, and three 25 microliter aliquots of each dilution were applied to the dried surface of a Petri dish containing nutrient agar. After incubation at 37° C. for 48 hours, the three replicates for each dilution were counted and averaged. Control samples containing no disinfectant, or in some cases, unchlorinated precursor compounds, were handled in the same manner. […] Inactivation of the organism was considered to be at least 99.9999% when no colonies were detected in the thiosulfate-quenched aliquots.

C=CC(=O)OCC1(CC)COC(=O)N1Br (stereo not shown) [Polymer 1a-Br, 3-bromo-4-(acryloxymethyl)-4-ethyl-2-oxazolidinone]
Contact Time for 6-log Inactivation of S. aureus: <5 min
